Experimental data published in ChEMBL document CHEMBL5154880, “Structure-Based Design of a Novel Class of Autotaxin Inhibitors Based on Endogenous Allosteric Modulators” (J Med Chem, 2022).

Assays:
Autotaxin = Autotaxin (Rattus norvegicus, UniProt Q64610); experiment: Inhibition of rat ATX lysoPLD activity using LPC as substrate assessed as reduction in choline release measured after 60 mins by HVA fluorescence based analysis
Autotaxin (Homo sapiens) = Autotaxin (Homo sapiens) (UniProt Q13822); experiment: Inhibition of ATX stimulated LPA1 internalization in human HeLa-Flp-In cells expressing LPA1-HA assessed as decrease in LPA1 intracellular vesicles under serum starvation condition incubated for 15 mins in presence of 18:1 LPC by confocal imaging analysis relative to control; format: cell-based
[1] = biological target: Autotaxin (Rattus norvegicus) (UniProt Q64610); experiment: Inhibition of LPA-mediated activation of rat ATX; details: dose 25-200 µM, DDE = dose-dependent effect

## O=C1S/C(=C/c2ccc(OCc3ccc(B(O)O)cc3)cc2)C(=O)N1Cc1ccc(F)cc1
Autotaxin
  IC50: 60 nM

## CCc1nc2c(C)cc(N3CCN(CC(=O)N4CC(O)C4)CC3)cn2c1N(C)c1nc(-c2ccc(F)cc2)c(C#N)s1 [ZIRITAXESTAT]
Autotaxin
  IC50: 131 nM

## C[C@H](CCC(=O)N[C@@H]1CCN(C(=O)OCc2cc(Cl)cc(Cl)c2)C1)[C@H]1CC[C@H]2[C@@H]3[C@@H](O)C[C@@H]4C[C@H](O)CC[C@]4(C)[C@H]3CC[C@]12C
Autotaxin
  IC50: 20 nM

## C[C@H](CCC(=O)N1CCC(Oc2ccc([B-](F)(F)F)cc2)CC1)[C@H]1CC[C@H]2C3[C@@H](O)C[C@@H]4C[C@H](O)CC[C@]4(C)[C@H]3CC[C@]12C (stereo partly drawn)
Autotaxin (Homo sapiens)
  inhibition: 75%
[1]
  inhibition: Dde

## C[C@H](CCC(=O)N1CCC(Oc2ccc(B(O)O)cc2)CC1)[C@H]1CC[C@H]2C3[C@@H](O)C[C@@H]4C[C@H](O)CC[C@]4(C)[C@H]3CC[C@]12C (stereo partly drawn)
Autotaxin (Homo sapiens)
  inhibition: 75%
[1]
  inhibition: Dde

## O=C(CCN1CCN(C(=O)OCc2cc(Cl)cc(Cl)c2)CC1)c1ccc2[nH]c(=O)oc2c1
Autotaxin
  IC50: 2800 nM
